Source: patent US20240415802A1, “GENISTEIN FOR ASTHMA TREATMENT” (University of South Florida, priority 2022, published 2024)

How the values were obtained:
[1] = target: T1, PAI-1 (Mus musculus, UniProt P22777); conditions: OVA challenge model of allergic asthma; cited from earlier work
T1 sequence (P22777 23-402): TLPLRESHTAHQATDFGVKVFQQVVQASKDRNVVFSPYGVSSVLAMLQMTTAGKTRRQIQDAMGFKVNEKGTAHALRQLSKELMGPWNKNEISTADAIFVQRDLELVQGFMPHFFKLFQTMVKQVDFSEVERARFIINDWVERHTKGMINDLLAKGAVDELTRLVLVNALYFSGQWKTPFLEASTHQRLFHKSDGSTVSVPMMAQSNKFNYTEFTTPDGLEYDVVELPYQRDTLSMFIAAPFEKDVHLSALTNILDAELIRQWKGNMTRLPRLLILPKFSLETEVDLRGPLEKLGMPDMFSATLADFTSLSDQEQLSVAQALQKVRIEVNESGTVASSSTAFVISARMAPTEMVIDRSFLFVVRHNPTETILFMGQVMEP

[2] = system: PAI-1 4G promoter; assay: PAI-1 promoter luciferase reporter assay in TGF-β stimulated NHBE cells; format: cell-based, human; conditions: NHBE cells transfected with 4G vector; TGF-β 2 ng/mL 6 hours; genistein pretreatment 5 μM 1 hour; p=0.007
Protocol: Normal human bronchial epithelial cells (NHBE) and a human mast cell line, LAD2, were cultured and transfected with luciferase plasmids containing a 4G, 5G or pGL3-basic vector (empty backbone). […] (FIG. 1B)
Normal human bronchial epithelial cells (NHBE) were cultured in 5% CO2 chamber at 37° C. with epithelial cell growth basal media (BEGM, Lonza). Cells were seeded on type 1 collagen-coated plate. Prior to transfection and stimulation, NHBEs were cultured without hydrocortisone (HC) for a day or two, at ˜80% confluency in 12 wells. Passage 2 or 3 was used for the experiment. Cells were transfected with luciferase plasmids containing different Pai-1 polymorphisms, 4G4G, 5G5G, pGL3-luciferase reporter basic vector (empty backbone, Promega, Madison, WI, USA) using Lipofectamine 3000 transfection reagent (Invitrogen, Waltham, MA, USA). Cells were stimulated for 6 hours with TGF-β (2 ng/mL, R&D Systems, Minneapolis, MN, USA) with and without genistein (Sigma-Aldrich, St. Louis, MO, USA) pretreatment (5 μM) for 1 hour. Cells were harvested and lysed in 1×PLB reagent prior to performing Dual-luciferase report assay (DLR assay, Promega, Madison, WI, USA). The firefly luciferase activity and Renilla luciferase activity were measured sequentially.

[3] = system: PAI-1 4G promoter; assay: PAI-1 promoter luciferase reporter assay in stimulated LAD2 mast cells; format: cell-based, human; conditions: cells transfected with 4G vector, genistein pretreatment 5 μM 1 hour
Protocol: LAD2 cells, a human mast cell line, were cultured and transfected with luciferase plasmids containing a 4G, 5G or pGL3-basic vector to determine the promotor activity. These LAD2 cells were stimulated overnight with IgE (100 ng/mL) and streptavidin (500 ng/mL) (IgE+streptavidin) for IgE-receptor cross-linking or Ionomycin (100 ng/mL) and phorbol myristate acetate (PMA, 10 ng/ml) (Ionomycin+PMA) with or without genistein pretreatment (5 μM) for 1 hour. […] LAD2 cells transfected with the 5G vector didn't increase promoter activity by IgE+Streptavidin/Ionomycin+PMA stimulation compared to no treatment (FIGS. 2C and 2D).
Human mast cells (LAD2) were grown in complete serum-free growth media (Stem pro-34 with the supplement, penicillin/streptomycin, L-glutamine and SCF recombinant, Invitrogen, Waltham, MA, USA). Cells were cultured in cytokine-free media (without SCF recombinant) at density of ˜0.5×10^6 per mL for a day prior to transfection and stimulation. Cells were transfected with luciferase plasmids containing different Pai-1 polymorphisms, 4G4G, 5G5G, pGL3-luciferase reporter basic vector (empty backbone, Promega, Madison, WI) using Lipofectamine 3000 transfection reagent (Invitrogen, Waltham, MA, USA). […] The firefly luciferase activity and Renilla luciferase activity were measured sequentially.

[4] = system: PAI-1; conditions: normal bronchial epithelial cells; cited from earlier work

O=C(O)C(=O)c1cn(Cc2ccccc2)c2ccc(-c3ccc(OC(F)(F)F)cc3)cc12 [Tiplaxtinin]
Airway hyperresponsiveness (AHR) [1]: reduced
Degree of eosinophilic airway inflammation [1]: reduced

O=c1c(-c2ccc(O)cc2)coc2cc(O)cc(O)c12 [genistein, 5,7-dihydroxy-3-(4-hydroxyphenyl)-chromen-4-onc]
PAI-1 4G promoter activity increased by TGF-β1 stimulation [2]: blocked by genistein pretreatment significantly
PAI-1 4G promoter activity increased by IgE+Streptavidin stimulation ([3]; IgE 100 ng/mL + streptavidin 500 ng/mL, p=0.05): blocked by genistein pretreatment significantly
PAI-1 4G promoter activity increased by Ionomycin+PMA stimulation ([3]; Ionomycin 100 ng/mL + PMA 10 ng/ml, p<0.05): blocked by genistein pretreatment significantly
TGF-β1-induced PAI-1 production [4]: downregulation
